Laboratory results published in patent US8748464B2, “Use of SIRT1 activators or inhibitors to modulate an immune response” (The J. David Gladstone Institutes, priority 2008, dated 2014).

Experiments:
Jurkat T cells [1] = experiment: IL-2 protein ELISA in supernatant of α-CD3-stimulated Jurkat T cells infected with EF-1α-GFP or EF-1α-Tat-GFP viruses; format: cell-based, human; settings: 16 hrs
Experimental: Lentiviral vectors, which contained the heterologous elongation factor 1α (EF-1α) promoter driving Tat and GFP expression, were generated. High titer viral stocks were produced and used to infect Jurkat T cells. […] Infected cultures were stimulated with antibodies specific for the CD3 receptor and treated with increased concentrations of resveratrol (0.4 μM, 2 μM, and 10 μM), a known SIRT1 activator for 16 hrs. IL-2 protein was measured in the culture supernatant by ELISA assay. Following stimulation with α-CD3 antibody, IL-2 protein was superinduced ˜4-fold by wild type Tat (FIG. 8A). In cells expressing Tat, ˜2300 pg/ml of IL-2 protein was detected in response to α-CD3 treatment, whereas in control cells, only ˜600 pg/ml of IL-2 protein was induced.
The effects of small molecule of SIRT1 ([…]) on T cell hyperactivation in Tat-expressing cells were examined. Jurkat T cells were infected with EF-1α-GFP or EF-1α-Tat-GFP viruses (FIG. 8B). Infected cultures were stimulated with α-CD3 antibody and treated with SRT2183 (0.2, 1, and 5 μM) for 16 hrs.
FIGS. 8A and 8B. Resveratrol and small molecule activator of SIRT1 (SRT2183) suppresses T cell hyperactivation by Tat. (A) IL-2 protein levels measured by ELISA in the supernatant of infected cultures. 24 hrs after infection with EF1α-GFP and EF1α-Tat-GFP viruses, Jurkat T cells were stimulated with α-CD3 antibody in the presence of increased concentrations of resveratrol (0.4, 2, and 10 μM) for 16 hrs. (B) 24 hrs after infection with EF1α-GFP and EF1α-Tat-GFP viruses, Jurkat T cells were stimulated with α-CD3 antibody in the presence of increased concentrations of SRT2183 (0.2, 1, and 5 μM) for 16 hrs. IL-2 protein levels were measured by ELISA in the supernatant of infected cultures.

SIRT1 [2] = target: T1, SIRT1 (Homo sapiens, UniProt Q96EB6); settings: Howitz et al. 2003; Baur et al. 2006; cited from earlier work
T1 sequence (Q96EB6 1-747): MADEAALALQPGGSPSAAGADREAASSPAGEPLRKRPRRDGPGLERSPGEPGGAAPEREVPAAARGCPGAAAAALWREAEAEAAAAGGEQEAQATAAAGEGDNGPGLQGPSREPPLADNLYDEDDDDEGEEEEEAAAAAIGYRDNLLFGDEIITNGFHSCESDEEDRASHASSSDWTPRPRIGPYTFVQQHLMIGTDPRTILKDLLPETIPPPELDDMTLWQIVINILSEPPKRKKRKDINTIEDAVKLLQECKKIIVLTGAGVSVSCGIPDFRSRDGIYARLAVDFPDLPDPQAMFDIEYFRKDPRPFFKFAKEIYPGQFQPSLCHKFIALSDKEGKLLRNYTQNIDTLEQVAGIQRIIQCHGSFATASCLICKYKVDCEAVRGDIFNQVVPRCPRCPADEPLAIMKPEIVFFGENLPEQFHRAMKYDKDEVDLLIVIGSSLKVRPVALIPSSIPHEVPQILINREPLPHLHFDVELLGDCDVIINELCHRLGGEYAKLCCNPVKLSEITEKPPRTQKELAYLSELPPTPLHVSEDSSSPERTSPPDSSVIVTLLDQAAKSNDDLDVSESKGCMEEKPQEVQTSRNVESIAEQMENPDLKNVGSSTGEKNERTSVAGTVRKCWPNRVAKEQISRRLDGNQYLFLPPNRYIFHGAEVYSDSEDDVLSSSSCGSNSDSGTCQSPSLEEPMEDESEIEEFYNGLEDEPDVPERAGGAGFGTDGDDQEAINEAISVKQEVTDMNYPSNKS

Jurkat T cells [3] = experiment: Real-time RT-PCR of IL-2 mRNA in α-CD3/28-activated Jurkat T cells; format: cell-based, human
Experimental: Viral supernatant containing 1500 ng of p24 was used to infect 18×10^6 JurkatT cells. Infections were carried out in 6-well plates at 2400 rpm in a Beckman-Coulter centrifuge for 2 h at 32° C. in the presence of polybrene (1 μg/ml, Sigma).
Total RNA was extracted using RNA STAT-60 reagent (Tel-Test) according to the manufacturer's instruction. The first strand cDNA was generated using 2 μg of total RNA and SuperScript reverse transcriptase (Invitrogen). […] Relative gene expression ratios between stimulated and nonstimulated conditions were calculated by the equation, ratio=2^−ΔΔCt, comparative Ct method (Applied Biosystems).
Infected cultures were activated for 2 h and 8 h with α-CD3/28 antibodies. (B) Real-time RT-PCR analysis of IL-2 mRNA levels in infected cultures 2 h after activation with α-CD3/28.

[4] = tested on: FLAG-FoxP3 in 293 T cells; experiment: Immunoprecipitation/western blot of acetylated FLAG-FoxP3 or HA-AML1/Runx1 in 293 T cells cotransfected with p300; format: cell-based
From the text: FIGS. 10A-D. SIRT1 interacts with FoxP3 and inhibition of SIRT1 deacetylase activity increases acetylation of FoxP3. (A) Communoprecipitation/western blot analysis of FLAG-tagged FoxP3 and HA-tagged SIRT1 after transfection of corresponding expression vectors or empty vector controls into 293T cells. (B) Communoprecipitation assay of SIRT1 and FoxP3 deletion mutants. A schematic summary of the binding of FoxP3 mutants to SIRT1 is shown. The forkhead box (FH) indicates the DNA binding domain ZnF, zinc finger domain; LZ, leucine zipper. […] An expression vector for the p300 acetyltransferase was cotransfected with FoxP3. (D) The same experiment as in (C) using HA-AML1/Runx1. Immunoprecipitations were performed with either anti-FLAG antibody coupled to agarose (α-FLAG agarose) (C) or anti-hemagglutinin antibody coupled to agarose (α-HA agarose) (D) and western blotting with rabbit polyclonal antibody to acetyl-lysine (α-acetyl lysine) (α-AcK), α-FLAG or α-HA antibodies.

[5] = tested on: FLAG-FoxP3 in 293 T cells; experiment: Western blot of FLAG-FoxP3 (wild type or mutant) or FLAG-AML1/Runx1 expression in 293 T cells; format: cell-based; settings: 293 T cells
Experimental: To determine whether the three newly identified acetylated lysine residues regulate FoxP3 stability, mutants were generated in which each of three lysine residues was substituted to arginines (KR), a conservative mutation that preserves the positive charge of the residue.
To investigate the effect of SIRT1 inhibition and the three newly identified acetylation sites on FoxP3 protein stability, wild type and 3KR mutant FoxP3 protein expression was measured after treatment with cycloheximide (CHX), a general inhibitor of protein translation.
(B) Scheme of acetylated lysine residues identified by mass spectrometry using immunoprecipitated FLAG-FoxP3 protein. The murine protein is shown.

SIRT1 [6] = target: T1, SIRT1; experiment: In vitro deacetylation of acetylated recombinant p65 by recombinant SIRT1, western blot α-AcK310 p65; format: biochemical; design: purchased Biomol; settings: synthetic Tat 0.1 μg or nicotinamide 10 mM, preincubated 15 min; NAD 1 mM, 3 h, 37° C.
Experimental: Recombinant p65 protein prepared from baculovirus-infected Sf9 insect cells (BD Biosciences) was acetylated by immunoprecipitated p300 overexpressed in 293 cells as previously described (Chen et al., 2005). Acetylated p65 protein was incubated with recombinant SIRT1 (1 μg/5U; Biomol) in SIRT1 deacetylase buffer (50 mM Tris-HCl pH 9, 4 mM MgCl2, 0.2 mM DTT) in the presence of NAD (1 mM; Sigma) for 3 h at 37° C. […] Reactions were stopped by the addition of SDS loading buffer, boiled, and after brief centrifugation, analyzed by western blotting with rabbit a-AcK310 p65 (Chen et al., 2005) or mouse α-p65 antibodies (sc-8008, Santa Cruz).
Next, we examined the effect of Tat on deacetylation of p65. In vitro acetylated recombinant p65 protein was incubated with recombinant SIRT1 and synthetic Tat proteins. The extent of deacetylation was determined by western blotting with antibody specific for acetylated K310 in p65 (α-AcK310 p65). […]
FIGS. 5A-D. Tat inhibits the SIRT1 deacetylase activity (A) In vitro deacetylation assay of recombinant SIRT1 in the presence of synthetic Tat (aa 1-72). The rate of 1 μM SIRT1 was calculated for 200 μM fluorogenic deacetylase substrate (aa 379-382 of p53) in the presence of twelve concentrations of synthetic Tat. […] Total cell lysates were analyzed by western blotting with α-AcK310 p65 or α-T7 antibodies. […]

Structure (SMILES) | ability of Tat to superinduce IL-2 production (Jurkat T cells [1]; 10 μM) | superinduction of IL-2 protein in Tat-expressing cells (Jurkat T cells [1]; 0.4, 2 and 10 μM) | activation of SIRT1 enzymatic activity (SIRT1 [2]) | effect of combination with Tat on IL-2 expression (Jurkat T cells [3]) | IL-2 mRNA levels (Jurkat T cells [3]; noninfected Jurkat T cells, nicotinamide 10 mM 1 h before α-CD3/28) | acetylation levels of FoxP3 [4] | acetylation of AML1/Runx1 [4] | FoxP3 mRNA levels [5] | FoxP3 protein expression ([5]; nicotinamide 5 mM, Ex-527 50 μM or TSA 400 nM, 16 hours) | deacetylation of p65 (K310) by SIRT1 (SIRT1 [6])
Oc1ccc(/C=C/c2cc(O)cc(O)c2)cc1 [resveratrol] | completely impaired | abolished by resveratrol in a concentration dependent manner | (weak) reversible activator | – | – | – | – | – | – | –
NC(=O)c1cccnc1 [nicotinamide] | – | – | – | no additive effect | superinduced IL-2 mRNA to similar levels as Tat | increased acetylation levels of FoxP3 | increased to the same extent | No effect | upregulation of protein expression | same inhibition of p65 deacetylation
